Measurements: ChEMBL document CHEMBL5241077 (Eur J Med Chem, 2021)
Values after ≈ are worked out from the molar mass of the structure shown.

Columns and labels:
[1] = tested on: dengue virus type 2; assay: Antiviral activity against DENV2 infected hamster BHK cells assessed as inhibition of virus-induced cytopathogenicity and measured after 20 hrs by flow cytometry; type: functional, organism-based
[2] = tested on: dengue virus type 2; assay: Antiviral activity against DENV2 16681 infected in African green monkey Vero E6 cells assessed as inhibition of virus-induced cytopathic effect incubated for 1.5 hrs by plaque assay; type: functional, organism-based; conditions: Dengue virus, 16681, Vero
[3] = tested on: dengue virus type 2; assay: Antiviral activity against DENV2 TSV01 infected in Asian tiger mosquito C6/36 cells assessed as reduction in plaque forming unit incubated for 1 hrs by propidium iodide staining based fluorescence analysis; type: functional, organism-based; conditions: TSV01, C6/36, 1 h
[4] = tested on: dengue virus type 2; assay: Antiviral activity against DENV2 infected in human HEK293 cells assessed as reduction in viral load incubated for 3 days by plaque reduction assay; type: functional; conditions: HEK293, 72 h, time 3 day
[5] = Binding affinity to Dengue virus serotype 2 envelope stem (419 to 447 residues) trimer peptide incubated for 3 hrs by fluorescence polarization assay; set-up: species or system dengue virus type 2
[6] = tested on: dengue virus type 2; assay: Antiviral activity against DENV2 […] infected in hamster BHK-21 cells assessed as reduction viral titer incubated for 48 hrs by plaque assay; type: functional, organism-based; conditions: BHK-21, 48 h
[7] = tested on: dengue virus type 2; assay: Antiviral activity against DENV2 New Guinea C infected in hamster BHK-21 cells assessed as reduction viral titer incubated for 48 hrs by plaque assay; type: functional, organism-based; conditions: BHK-21, 48 h
[8] = tested on: dengue virus type 2; assay: Antiviral activity against DENV2 ThNH-7/93 infected in hamster BHK-21 cells assessed as reduction in viral entry incubated for 2 hrs by focus forming assay; type: functional, organism-based; conditions: ThNH-7/93, BHK-21, 2 h
[9] = tested on: dengue virus type 2; assay: Antiviral activity against DENV2 PL046 infected in hamster BHK-21 cells assessed as reduction in plaque forming unit incubated for 7 days by crystal violet staining analysis; type: functional, organism-based; conditions: PL046, BHK-21, 168 h
[10] = tested on: dengue virus type 2; assay: Antiviral activity against DENV2 infected in African green monkey Vero E6 cells assessed as inhibition of viral titer incubated for 48 hrs by plaque reduction assay; type: functional, organism-based
[11] = tested on: dengue virus type 2; assay: Antiviral activity against DENV2 ThNH-7/93 infected in hamster BHK-21 cells assessed as reduction in virus titer incubated for 2 hrs by focus forming assay; type: functional, organism-based; conditions: ThNH-7/93, BHK-21, 2 h
[12] = tested on: dengue virus type 2; assay: Antiviral activity against DENV2 infected in African green monkey Vero E6 cells assessed as inhibition of viral replication incubated for 5 days by crystal violet staining based plaque reduction assay; type: functional, organism-based; conditions: 120 h

Which EC50 [1] does the source give for `O=P(O)(O)OC[C@H]1O[C@H](OC2[C@H](OS(=O)(=O)O)[C@@H](OC3C(OS(=O)(=O)O)O[C@H](COS(=O)(=O)O)[C@@H](OS(=O)(=O)O)[C@@H]3OS(=O)(=O)O)O[C@H](COS(=O)(=O)O)[C@H]2OS(=O)(=O)O)[C@@H](OS(=O)(=O)O)[C@@H](OS(=O)(=O)O)[C@@H]1OS(=O)(=O)O` (stereo not given in full) here?
Its EC50 is 200 µg/mL (≈ 144 µM).

With `O=C(O)C[C@@H]1C(=O)O[C@H]2[C@@H]3OC(=O)c4cc(O)c(O)c(O)c4-c4c(cc(O)c(O)c4O)C(=O)OC[C@H]2O[C@@H](OC(=O)c2cc(O)c(O)c(O)c2)[C@@H]3OC(=O)c2cc(O)c(O)c3c2[C@H]1[C@H](O)C(=O)O3` [CHEBULAGIC ACID] as the molecule, how does the EC50 [2] read?
The EC50 was 13.1 µM.

Which IC50 [3] does the source give for `O=C(O)c1cc(=O)c2ccc(S[C@@H](/C=C/C=C/CCOc3ccc(Cl)c(Cl)c3)[C@H](O)c3cccc(C(F)(F)F)c3)cc2o1` here?
Its IC50 is 6.8 µM.

Which IC90 [4] does the source give for `Nc1c(C(=O)Nc2nc(-c3ccccc3)cs2)sc2nc3c(cc12)CN(c1ccccc1)CC3` here?
The IC90 was 0.025 µM.

With `N#C/C(=N\Nc1cccc(Cl)c1)C(=O)c1ccco1` as the molecule, how does the IC50 [5] read?
Its IC50 is 15 µM.

With `Nc1c(C(=O)Nc2nc(-c3ccccc3)cs2)sc2nc3c(cc12)CC(c1ccccc1)CC3` (stereo not given) as the molecule, how does the IC90 [4] read?
Its IC90 is 0.112 µM.

With `CC(=O)N[C@@H]1[C@@H](O[C@@H]2O[C@@H](C(=O)O)[C@@H](O)[C@H](O)[C@H]2O)[C@@H](OS(=O)(=O)O)[C@@H](CO)O[C@H]1O` as the molecule, how does the IC50 [6] read?
Its IC50 is 0.3 µg/mL (≈ 0.628 µM).

And the IC50 [7]?
Its IC50 is 3 µg/mL (≈ 6.28 µM).

With `CC(=O)N[C@@H]1[C@@H](O[C@@H]2O[C@H](C(=O)O)[C@@H](O)[C@H](O)[C@H]2O)[C@@H](O)[C@@H](OS(=O)(=O)O)O[C@H]1O` as the molecule, how does the EC50 [8] read?
The EC50 was 1.5 µg/mL (≈ 3.24 µM).

With `C[C@H]1c2cccc(O)c2C(=O)C2=C(O)[C@]3(O)C(=O)C(C(N)=O)=C(O)[C@@H](N(C)C)[C@@H]3[C@@H](O)[C@@H]21` [DOXYCYCLINE] as the molecule, how does the IC50 [9] read?
Its IC50 is 55.6 µM.

With `CN(C)[C@@H]1C(O)=C(C(=O)NCN2CCCC2)C(=O)[C@@]2(O)C(O)=C3C(=O)c4c(O)cccc4[C@@](C)(O)[C@H]3C[C@@H]12` [ROLITETRACYCLINE] as the molecule, how does the IC50 [9] read?
Its IC50 is 67.1 µM.

With `CO[C@H]1O[C@H](COS(=O)(=O)O)[C@H](O[C@@H]2O[C@H](CO)[C@H](O)[C@H](C)[C@H]2OS(=O)(=O)O)[C@H](O)[C@H]1OS(=O)(=O)O` as the molecule, how does the IC50 [10] read?
The IC50 was 0.14 µg/mL (≈ 0.235 µM).

With `C[C@@H]1O[C@H](C)[C@@H](O)[C@H](O)[C@@H]1OS(=O)(=O)O` as the molecule, how does the IC50 [11] read?
Its IC50 is 4.7 µg/mL (≈ 19.4 µM).

For `O=C1O[C@H]2[C@@H]3OC(=O)c4cc(O)c(O)c(O)c4-c4c(cc(O)c(O)c4O)C(=O)OC[C@H]2O[C@@H](OC(=O)c2cc(O)c(O)c(O)c2)[C@@H]3OC(=O)c2cc(O)c(O)c3c2[C@@H]2C1=CC(=O)[C@](O)(O3)C2(O)O` [GERANIIN], which IC50 [12] is on record?
The IC50 was 1.75 µM.

Which EC50 [1] does the source give for `O=S(=O)(O)O[C@@H]1[C@@H](OS(=O)(=O)O)[C@H](O[C@@H]2CO[C@@H](O)[C@H](OS(=O)(=O)O)[C@H]2OS(=O)(=O)O)OC[C@H]1O` here?
The EC50 was 30 µg/mL (≈ 49.8 µM).
